One assay addresses glucagon receptor (GCGR) (Homo sapiens, UniProt P47871). In words: cellular assay, agonist activity at GCGR. Format: cell-based. The text has this: This disclosure relates to a dual agonist peptide(s) as well as pharmaceutical dosage formulations comprising, and methods for using, the same. The dual agonist peptides have affinity for, and in preferred embodiments about equal affinity for, glucagon-like peptide 1 receptor (GLP-1R) and glucagon receptor (GCGR), as may be determined using a cellular assay. In some embodiments, this disclosure provides pharmaceutical dosage formulations configured to induce weight loss in a human being with fatty liver disease. In some embodiments, the human being may, or may not, suffer from type 2 diabetes. In some embodiments, the disclosure provides pharmaceutical dosage formulations configured to reduce pathogenic plasma lipid mediators. As used herein, “pathogenic” serum lipid mediators, included but are not limited to the following reactive lipid species: malondialdehyde (MDA), isolevuglandins (IsoLG), methyglyoxal (MGO), 4-oxononenal (ONE), and 4-hydroxynonenal (HNE). Oxidized phospholipids include 1-palmitoyl-2-oxovaleroyl-sn-glycero-3-phosphorylcholine (POVPC), 1-O-alkyl-2-azelaoyl-sn-glycero-3-phophorylcholine (azPAF), 1-(Palmitoyl)-2-(5-keto-6-octene-dioyl) phosphatidylcholine (KOdiA-PC), 1-palmitoyl-2-F2-isoprostane-sn-glycero-3-phosphocholine (F2IsoP-PC), and 1-palmitoyl-2-(5,6)-epoxyisoprostane E2-sn-glycero-3-phosphocholine (PEIPC). […]

Assay [1] deals with alanine aminotransferase (ALT). In words: Phase 1 12-week NAFLD study (Example 1): serum ALT. As to conditions: for ALT reduction: week 12; for decline in serum ALT levels: subjects with baseline serum ALT above 30 IU/L, 12 weeks. Format: in vivo, human. The text has this: Provided herein is disclosure of a Phase 1, multicenter, randomized, double-blind, placebo-controlled study to assess the effects of Pemvidutide (also termed herein as ALT-801), the safety of Pemvidutide and effects on hepatic fat fraction, anthropometric parameters, lipid metabolism, inflammatory markers and fibrosis markers in diabetic and non-diabetic (type 2 diabetes) overweight and obese (BMI 28.0 kg/m^2) subjects with NAFLD. This study was designed to assess changes in hepatic fat fraction by MRI-PDFF (magnetic resonance imaging-proton density fat fraction) in diabetic and non-diabetic overweight and obese subjects with NAFLD after 12 weeks of ALT-801 treatment. The trial was conducted without adjunctive diet and exercise interventions. The study assessed changes in body weight, lipid metabolism, metabolic markers, and inflammatory markers and safety and tolerability of ALT-801 after 12 weeks of treatment. Subjects were stratified for the presence or absence of diabetes at baseline. Fibroscan and cT1 assessments evaluated changes in liver inflammatory and fibrotic activity at the end of 12 weeks of treatment.
The study, described in this example, was carried out in 94 subjects overweight and obese (body mass index [BMI] ≥28.0 kg/m^2) Type 2 diabetic and non-diabetic subjects with nonalcoholic fatty liver disease (NAFLD) over about 4.5 months, including up to a 35-day screening period, and 85-day treatment period and a 25-day follow-up period, with treatment with ALT-801 (a composition comprising SEQ ID NO.: 1, “study medication”) or placebo administered by subcutaneous (SC) injection once weekly for up to twelve (12) doses.
The safety objective of this study was to assess the safety and tolerability of ALT-801 in 18-65 years old subjects with NAFLD (NAFLD without significant fibrosis, defined as FibroScan® controlled attenuation parameter (CAP) ≥280 dB/m and liver stiffness measurement (LSM)<10 kPa (i.e., indicating the absence of significant fibrosis), magnetic resonance imaging derived proton density fat fraction (MRI-PDFF) ≥10%), hemoglobin Alc (HbAlc) of less than 9.5%, and alanine aminotransferase (ALT) or aspartate aminotransferase (AST) values of ≤[…]. The pharmacodynamic (PD) objectives of this study were to evaluate the effects of ALT-801 on hepatic fat fraction, anthropometric parameters, lipid metabolism, metabolic markers, inflammatory markers, fibrosis markers, and lipotoxicity markers. The pharmacokinetic (PK) objectives of this study were to evaluate the effects of ALT-801 and metformin exposure (drug interactions) on the subjects (e.g., ALT-801 and metformin concentrations in blood over time).
After providing informed consent, subjects underwent a screening period of up to 35 days. Subjects were instructed on how to maintain their normal diets, alcohol consumption and physical activities and not to start any new diets, supplements, or exercise programs at any time while participating in the study. Counseling was provided on diet and exercise on the Day 1 visit and reinforced at subsequent visits. Study subjects were randomized 1:1:1:1 to one of the following treatment arms: 1) ALT-8011.2 mg SC once weekly for 12 weeks; 2) ALT-8011.8 mg SC once weekly for 12 weeks; 3) ALT-801 0.6 mg SC at week 1, 1.2 mg SC at week 2, 1.8 mg SC once weekly for 2 weeks (weeks 3 and 4), and 2.4 mg SC once weekly for weeks 5 through 12; or, 4) placebo SC once weekly for 12 weeks. Subjects were stratified by presence or absence of diabetes at baseline. Subjects in the treatment arm with a final therapeutic dose of 2.4 mg underwent a rapid 4-week dose escalation to improve tolerability and reduce the possibility of adverse events. […] See FIG. 7, second 2.4 mg column as compared to the first 2.4 mg column (this study). See WO 2022/125598. […]

Sequence of glucagon receptor (GCGR) (P47871 26-477): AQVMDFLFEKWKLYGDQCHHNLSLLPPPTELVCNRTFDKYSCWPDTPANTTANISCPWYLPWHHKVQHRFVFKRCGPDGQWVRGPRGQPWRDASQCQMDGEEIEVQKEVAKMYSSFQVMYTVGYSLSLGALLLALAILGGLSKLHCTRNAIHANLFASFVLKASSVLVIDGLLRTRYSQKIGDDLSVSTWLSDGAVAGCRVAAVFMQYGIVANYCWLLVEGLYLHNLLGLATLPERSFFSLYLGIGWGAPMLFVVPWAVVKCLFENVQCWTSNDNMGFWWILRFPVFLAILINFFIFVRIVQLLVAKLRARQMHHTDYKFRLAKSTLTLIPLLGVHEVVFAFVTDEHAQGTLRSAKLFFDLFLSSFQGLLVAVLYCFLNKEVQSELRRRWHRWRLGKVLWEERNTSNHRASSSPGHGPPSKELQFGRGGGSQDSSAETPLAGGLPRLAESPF

At glucagon receptor (GCGR), `CC[C@H](C)[C@H](NC(=O)[C@H](Cc1ccccc1)NC(=O)[C@H](CCC(=O)O)NC(=O)[C@@H]1CCCCNC(=O)CC[C@H](NC(=O)[C@H](CC(=O)O)NC(=O)[C@H](CC(C)C)NC(=O)[C@H](Cc2ccc(O)cc2)NC(=O)[C@H](CCCCN)NC(=O)[C@H](CO)NC(=O)[C@H](Cc2ccc(O)cc2)NC(=O)[C@H](CC(=O)O)NC(=O)[C@H](CO)NC(=O)[C@@H](NC(=O)[C@H](Cc2ccccc2)NC(=O)[C@@H](NC(=O)CNC(=O)[C@H](CCC(N)=O)NC(=O)C(C)(C)NC(=O)[C@@H](N)Cc2c[nH]cn2)[C@@H](C)O)[C@H](C)O)C(=O)N[C@@H](CCCCNC(=O)C2O[C@@H](OCCCCCCCCCCCCCCCCCC(=O)O)C(O)C(O)[C@@H]2O)C(=O)N[C@@H](C)C(=O)N[C@@H](C)C(=O)N1)C(=O)N[C@@H](CCC(N)=O)C(=O)N[C@@H](Cc1c[nH]c2ccccc12)C(=O)N[C@@H](CC(C)C)C(=O)N[C@@H](CC(C)C)C(=O)N[C@@H](CCC(N)=O)C(=O)N[C@H](C(N)=O)[C@@H](C)O` (stereo partly drawn) [ALT-801, Pemvidutide] had a 50% effective concentration (EC50) of approximately 0.04 nM. The ALT reduction in assay [1] (all subjects, 1.2 mg) is reported as −11.2%; in assay [1] (all subjects, 1.8 mg) it was −13.8%; in assay [1] (all subjects, 'the 1.8 mg dose' as printed (second mention)), −13.6%; in assay [1] (subjects with baseline ALT >=30 IU/L, 1.2 mg) it was −17.8%; in assay [1] (subjects with baseline ALT >=30 IU/L, 1.8 mg), −20.8%; in assay [1] (subjects with baseline ALT >=30 IU/L, 2.4 mg), −27%. For the same molecule, the “decline in serum ALT levels” value is recorded as 27.0 IU/L in assay [1] (2.4 mg dose cohort) and “more than 17 IU/L” in assay [1] (all dose levels).

In general, EC50 refers to the concentration at which the effect is half-maximal. Higher therefore signals weaker potency.

Source of the values: US20240269238A1, “Therapeutic Regimens and Methods for Reducing Body Weight in a Subject with Fatty Liver Disease using a GLP-1R and GCGR Agonist” (Spitfire Pharma LLC, priority 2022, published 2024).
